Data reported in patent publication US12102639B2, “Imipridones for gliomas” (Oncoceutics, Inc., priority 2017, dated 2024).
“Also recorded” adds a separate entry of the source.

Key:
[1] = tested on: temozolomide-resistant high-grade glioma xenografts; test: High-grade glioma xenografts in mice; assay type: in vivo
[2] = biological target: DRD4 (Homo sapiens, UniProt P21917); details: arrestin recruitment reporter assay
[3] = tested on: recurrent high grade glioma; test: Progression-free survival of patients with recurrent high grade glioma; assay type: in vivo, human; details: H3 K27M (n=15) vs wild-type or unknown H3 status (n=35)
Excerpt: In one study of thirty-nine pediatric diffuse intrinsic pontine gliomas, DIPG patients carrying the K27M-H3.3 mutation (n=30) have worse overall survival compared to patients wild-type (n=9) for this histone (Khoung-Quang et al., Acta Neuropathol (2012) 124:439). […] The cohort is divided into two groups: one with known H3 K27M mutation (n=15) and the other with wild-type or unknown H3 status (n=35).

[4] = biological target: DRD5 (Homo sapiens, UniProt P21918); test: GPCR β-arrestin recruitment reporter assay, DRD5; assay type: cell-based
[5] = tested on: GPCRs; test: In vitro profiling of GPCR activity (arrestin recruitment panel)
[6] = tested on: kinome
[7] = tested on: GDSC collection of cell lines; test: Genomic of Drug Sensitivity in Cancer (GDSC) cell line collection; assay type: cell-based, human; details: cell viability at 72 hours post-treatment
Excerpt: FIG. 2. Tumor type sensitivity of the Genomic of Drug Sensitivity in Cancer program (GDSC) cell line collection. […] Numbers above the bar indicates indicate the number of cell lines per tumor type.
High expression of DRD2 occurred in primary, rather than secondary, glioblastoma and was associated with a poor prognosis. […] Resistance could be recapitulated with overexpression of the mutant DRD5 gene or, to a lesser extent, with the wild-type gene.

[8] = tested on: recurrent glioblastoma; test: Phase II recurrent glioblastoma trial (NCT02525692)
[9] = as above; details: human, in vivo, 625 mg
[10] = biological target: DRD2 (Homo sapiens, UniProt P14416); details: relative to antipsychotics
[11] = tested on: H3.3 K27M mutant diffuse intrinsic pontine glioma (DIPG); test: Treatment of girls with H3.3 K27M mutant DIPG; details: for symptoms / radiographic evaluation of tumor: child
[12] = tested on: DRD2 (short and long isoforms); test: GPCR β-arrestin recruitment reporter assay, DRD2; assay type: cell-based; details: for activity at DRD2: arrestin recruitment reporter assay
[13] = tested on: MV411 AML cells; test: MV411 AML xenograft model; details: 50 mg/kg, oral weekly administration (ONC201 at similar doses)
[14] = tested on: tumor cells (HCT116, MDA-MB-231, U87); test: Cell viability of tumor cells after 72 hours; details: Homo sapiens, read-out: viability of tumor cells
[15] = tested on: NCI60 cancer cell line panel; test: NCI60 cancer cell line panel; assay type: cell-based; details: NCI60 panel (FIG. 4)
[16] = tested on: several cell lines; test: In vitro potency in several cell lines (Table 5)
[17] = tested on: Bone cancer; test: Bone cancer responsiveness; assay type: cell-based; details: FIG. 5
[18] = tested on: Ewing's sarcoma cell lines; test: Ewing's sarcoma cell lines; assay type: cell-based; details: 16 Ewing's sarcoma cell lines (FIG. 6, 7)
[19] = tested on: patient-derived glioma stem cell (GSC) populations; test: Patient-derived glioma stem cell assays (CellTiter-Glo, limiting dilution, sphere formation); assay type: cell-based, human
Excerpt: In silico analysis of a glioma patient database led to investigation of DRD2 signaling in glioma; alteration of DRD2 mRNA expression was directly connected to global gene expression change in the glioma patient database.

[20] = tested on: HFF (Normal Fibroblast); test: Cell viability of HFF normal fibroblasts; details: therapeutic doses, Table 5
[21] = biological target: T1, GPR91 (Homo sapiens, UniProt Q9BXA5); test: GPCR arrestin recruitment reporter assay, GPR91; assay type: cell-based
T1 construct: expressed in transfected cells
Protocol: (§1) Dual targeting of DRD2/3 and GPR132/91 represents a novel strategy for anti-cancer efficacy without toxicity. […] The safety profile of ONC213 confirmed in mouse MTD study with NOAEL 75 mg/kg three times that of ONC212 (25 mg/kg).
(§2) ONC201 dihydrochloride was obtained from Oncoceutics.

[22] = biological target: DRD3 (Homo sapiens, UniProt P35462); test: GPCR β-arrestin recruitment reporter assay, DRD3; assay type: cell-based
[23] = biological target: T2, GPR132 (Homo sapiens, UniProt Q9UNW8); test: GPCR arrestin recruitment reporter assay, GPR132; assay type: cell-based; details: for activity at GPR132: arrestin recruitment reporter assay
T2 construct: expressed in transfected cells
T2 sequence (Q9UNW8 1-380): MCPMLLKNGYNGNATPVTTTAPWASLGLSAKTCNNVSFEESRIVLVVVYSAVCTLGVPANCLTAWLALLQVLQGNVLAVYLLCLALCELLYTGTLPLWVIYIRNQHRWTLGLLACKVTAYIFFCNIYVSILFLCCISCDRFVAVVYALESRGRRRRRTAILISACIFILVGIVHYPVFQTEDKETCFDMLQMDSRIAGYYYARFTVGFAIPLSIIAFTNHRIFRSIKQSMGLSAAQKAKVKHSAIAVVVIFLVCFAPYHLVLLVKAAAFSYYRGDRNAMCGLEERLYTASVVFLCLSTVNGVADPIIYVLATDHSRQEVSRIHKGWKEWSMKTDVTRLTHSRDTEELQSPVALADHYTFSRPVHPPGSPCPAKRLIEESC
Protocol: as §1, §2

[24] = biological target: T3, CXCR7 (Homo sapiens, UniProt P25106); test: GPCR arrestin recruitment reporter assay, CXCR7; assay type: cell-based
T3 construct: expressed in transfected cells
Excerpt: as §2

[25] = tested on: HCT116 cells; test: Anticancer efficacy in HCT116 cells; assay type: cell-based, human; details: HCT116 cells
[26] = biological target: DRD2L (Homo sapiens, UniProt P14416); test: Arrestin recruitment to DRD2L, Gaddum/Schild EC50 shift analysis; assay type: cell-based
[27] = 17 patients, 625 mg every three weeks

Sequence of DRD5 (P21918 whole entry): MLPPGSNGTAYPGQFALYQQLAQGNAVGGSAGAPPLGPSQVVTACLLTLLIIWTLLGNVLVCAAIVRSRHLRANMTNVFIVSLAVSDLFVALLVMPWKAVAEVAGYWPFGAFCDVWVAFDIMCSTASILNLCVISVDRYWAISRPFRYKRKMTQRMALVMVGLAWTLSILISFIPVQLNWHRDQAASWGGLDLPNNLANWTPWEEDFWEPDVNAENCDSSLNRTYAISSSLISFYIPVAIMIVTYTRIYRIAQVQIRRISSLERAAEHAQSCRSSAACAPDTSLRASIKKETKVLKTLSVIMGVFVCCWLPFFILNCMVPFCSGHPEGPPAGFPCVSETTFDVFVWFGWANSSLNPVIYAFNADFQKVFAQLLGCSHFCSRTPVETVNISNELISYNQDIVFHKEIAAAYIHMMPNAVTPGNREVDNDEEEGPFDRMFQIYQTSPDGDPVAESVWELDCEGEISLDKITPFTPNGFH
T3 sequence (P25106 whole entry): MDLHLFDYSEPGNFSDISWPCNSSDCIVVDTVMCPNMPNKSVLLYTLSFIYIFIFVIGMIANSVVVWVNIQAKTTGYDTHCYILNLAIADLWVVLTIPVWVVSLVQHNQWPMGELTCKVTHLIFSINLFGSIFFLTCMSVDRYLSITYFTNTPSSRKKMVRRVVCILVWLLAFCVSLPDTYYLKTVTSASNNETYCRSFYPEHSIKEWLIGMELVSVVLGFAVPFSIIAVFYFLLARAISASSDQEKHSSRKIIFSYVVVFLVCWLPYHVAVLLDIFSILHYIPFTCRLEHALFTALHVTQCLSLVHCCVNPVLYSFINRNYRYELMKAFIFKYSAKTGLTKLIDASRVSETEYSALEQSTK
Sequence of DRD2L (P14416 whole entry): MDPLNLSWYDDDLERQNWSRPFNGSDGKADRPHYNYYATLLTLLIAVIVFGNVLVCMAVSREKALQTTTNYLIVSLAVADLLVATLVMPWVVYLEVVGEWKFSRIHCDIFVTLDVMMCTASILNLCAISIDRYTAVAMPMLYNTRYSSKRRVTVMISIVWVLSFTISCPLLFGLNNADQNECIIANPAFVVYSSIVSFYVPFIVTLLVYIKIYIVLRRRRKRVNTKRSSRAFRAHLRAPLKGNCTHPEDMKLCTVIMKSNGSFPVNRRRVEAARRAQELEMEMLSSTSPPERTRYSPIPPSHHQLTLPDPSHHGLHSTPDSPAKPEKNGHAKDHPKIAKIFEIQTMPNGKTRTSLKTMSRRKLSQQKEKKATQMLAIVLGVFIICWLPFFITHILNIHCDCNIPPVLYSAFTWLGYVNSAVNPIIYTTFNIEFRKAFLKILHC
Sequence of DRD2 (P14416 whole entry): as above
Sequence of DRD4 (P21917 whole entry): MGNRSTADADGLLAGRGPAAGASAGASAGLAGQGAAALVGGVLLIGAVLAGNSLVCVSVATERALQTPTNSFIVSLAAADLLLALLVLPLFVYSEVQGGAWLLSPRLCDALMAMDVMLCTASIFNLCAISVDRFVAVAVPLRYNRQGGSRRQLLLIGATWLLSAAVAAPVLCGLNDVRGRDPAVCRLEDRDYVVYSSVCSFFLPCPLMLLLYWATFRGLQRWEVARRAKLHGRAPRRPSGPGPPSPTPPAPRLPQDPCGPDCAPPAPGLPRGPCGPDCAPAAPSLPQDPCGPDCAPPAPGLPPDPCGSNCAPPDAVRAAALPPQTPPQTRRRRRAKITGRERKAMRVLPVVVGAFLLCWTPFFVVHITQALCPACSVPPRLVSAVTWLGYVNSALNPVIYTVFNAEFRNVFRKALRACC
Sequence of DRD3 (P35462 whole entry): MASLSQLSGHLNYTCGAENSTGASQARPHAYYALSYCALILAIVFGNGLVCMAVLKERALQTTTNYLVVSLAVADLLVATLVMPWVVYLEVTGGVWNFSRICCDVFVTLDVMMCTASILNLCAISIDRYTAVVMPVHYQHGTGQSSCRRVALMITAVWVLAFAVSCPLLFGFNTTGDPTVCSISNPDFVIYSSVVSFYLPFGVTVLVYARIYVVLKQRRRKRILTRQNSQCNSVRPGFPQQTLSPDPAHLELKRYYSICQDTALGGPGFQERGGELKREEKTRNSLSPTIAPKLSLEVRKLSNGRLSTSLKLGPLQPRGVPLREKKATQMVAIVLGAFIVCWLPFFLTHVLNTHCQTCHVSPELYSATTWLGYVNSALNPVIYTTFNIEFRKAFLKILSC
T1 sequence (Q9BXA5 whole entry): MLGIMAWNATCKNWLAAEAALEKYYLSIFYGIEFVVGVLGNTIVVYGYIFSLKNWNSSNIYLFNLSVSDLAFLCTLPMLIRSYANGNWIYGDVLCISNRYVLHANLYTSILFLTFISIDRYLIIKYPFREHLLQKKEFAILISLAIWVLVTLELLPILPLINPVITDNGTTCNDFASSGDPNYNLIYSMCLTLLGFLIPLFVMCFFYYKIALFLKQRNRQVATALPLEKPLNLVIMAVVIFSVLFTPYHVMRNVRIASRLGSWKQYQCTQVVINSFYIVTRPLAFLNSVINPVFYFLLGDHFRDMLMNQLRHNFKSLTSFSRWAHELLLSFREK

## Cc1ccccc1CN1C(=O)C2=C(CCN(Cc3ccccc3)C2)N2CCN=C12 [ONC201, 7-benzyl-4-(2-methylbenzyl)-1,2,6,7,8,9-hexahydroimidazo [1,2-a]pyrido [3,4-e]pyrimidin-5(1H)-one]
[1]; monoagent and in combination with bevacizumab
  survival of mice with orthotopic xenografts: prolongs the survival
[1]; temozolomide-resistant high-grade glioma xenografts
  effect on xenografts: shrinks
[2]
  activity at DRD4: weaker potency
[3]
  progression-free survival (PFS): superior progression-free survival (PFS) in H3 K27M patients
[4]
  activity at DRD5: no antagonism; also recorded: but not D1-like (DRD1/5)
[5]
  GPCR profile: Antagonism of adrenoceptor alpha receptors or other GPCRs was not observed
[6]
  interactions with the kinome: no significant interactions
[7]
  in vitro efficacy profiling: broad anti-cancer efficacy with high sensitivity in human brain cancer cell lines
[8]; [27]
  Median OS: 41.6 weeks
  OS12: 35%
[8]; one patient, 625 mg every three weeks, after 15 months of therapy
  regression: 92%
[8]; person one
  time on study: > 10 weeks
[8]; person one, H3 K27M, first on-treatment evaluation at 8 weeks
  response: complete disappearance of malignant lesions; also recorded: complete disappearance of tumor lesions
[8]; person two
  time on therapy with durable response: > 1.5 years
[8]; person two, H3.3 K27M mutant, 625 mg once every three weeks
  response: durable objective response with complete regression of thalamic lesions
[8]; person two, H3.3 K27M mutant, 625 mg once every three weeks, after 18 doses
  overall tumor size regression: 96%
[8]; surrogate marker of target engagement
  serum prolactin: serum prolactin induction was observed; also recorded: significant induction of serum prolactin
[9]
  concentration at 2 h: 2600 ng/mL
[10]
  association rate for DRD2: very slow
[11]; 125 mg once weekly
  symptoms: complete resolution of their inability to use their left arm and hand
[11]; 125 mg once weekly, after 6 weeks
  radiographic evaluation of tumor: stable tumor lesion
[11]; 500 mg once weekly
  symptoms: near-complete resolution of their facial palsy; also recorded: improvement in facial palsy
[11]; 500 mg once weekly, after 16 weeks
  radiographic evaluation of tumor: significant regression; also recorded: shrinkage of lesion
[11]; once weekly dosing
  tolerability: tolerates the therapy well
[12]
  activity at DRD2: selectively antagonizes; also recorded: antagonized
[13]
  leukemia xenograft tumor growth: not efficacious
[14]
  viability at 5000 µg/mL: < 25%

## O=C1C2=C(CCN(Cc3ccccc3)C2)N2CCN=C2N1Cc1cccs1 [ONC203]
[15]
  anti-cancer efficacy: inactive negative control

## O=C1C2=C(CCN(Cc3ccccc3)C2)N2CCN=C2N1Cc1ccc(F)cc1F [ONC206]
[16]
  improvement in in vitro potency compared to ONC201: up to 20 fold
[17]
  responsiveness: more responsive to ONC206 than ONC201
[18]
  anti-cancer efficacy: most ONC206 responsive bone cancer subtype; also recorded: nanomolar range in 14 out of 16 Ewing's sarcoma cell lines
[15]
  anti-cancer efficacy: demonstrated anti-cancer efficacy across various tumor types
[19]; CellTiter-Glo cell viability, compared to differentiated glioma cells
  effect on glioma stem cells: potently inhibits; also recorded: preferentially eliminated GSCs
[19]; in vitro limiting dilution assay and sphere formation analysis
  tumor sphere formation: prevented tumor sphere formation and tumor growth
[12]
  activity at DRD2: selective DRD2 antagonism
[20]
  in vitro toxicity to normal cells: no in vitro toxicity to normal cells at therapeutic doses

## O=C1C2=C(CCN(Cc3ccccc3)C2)N2CCN=C2N1Cc1ccc(F)c(F)c1 [ONC213]
[21]
  activity at GPR91: agonist
[22]
  activity at DRD3: inhibitor
[12]
  activity at DRD2: inhibitor
[12]; rank against other imipridones
  DRD2/3 potency: more than ONC201 but less than ONC206
[23]
  activity at GPR132: agonist
[23]; rank against other imipridones
  GPR132 potency: less than ONC212

## O=C1C2=C(CCN(Cc3ccc(Cl)c(Cl)c3)C2)N2CCN=C2N1Cc1ccc(C(F)(F)F)cc1 [ONC234]
[24]; arrestin recruitment reporter assay
  activity at CXCR7: agonist activity
[4]
  activity at DRD5: antagonist activity
[5]
  GPCR profile: broad spectrum and potent GPCR targeting small molecule
[12]
  activity at DRD2: antagonist activity

## O=C1C2=C(CCN(Cc3ccsc3)C2)N2CCN=C2N1Cc1ccc(C(F)(F)F)cc1 [ONC236]
[25]
  IC50: 234 nM
[25]; Homo sapiens, HCT-116
  IC50: 88 nM
[23]
  activity at GPR132: highly selective GPR132 agonist

## O=C1C2=C(CCN(CC(O)c3ccccc3)C2)N2CCN=C2N1Cc1ccc(C(F)(F)F)cc1 (centres unmarked) [ONC237]
[4]
  activity at DRD5: antagonist
[23]
  activity at GPR132: agonist

## Cc1ccccc1CN1C2=NCCN2C(=O)C2=C1CCN(Cc1ccccc1)C2 [TIC-10, reference compound]
[24]; statement in the description, no method given
  activity at CXCR7: CXCR7 agonist

## TIC-10
[26]
  inhibition of DRD2L: did not inhibit
